The nature of series [1]: UV-Visible absorption (lambda max) of photochromic test square polymerizates in Varian Cary 3 UV-Visible spectrophotometer. Format: physicochemical. The note with it: 1.5×10-3 molal; for (λ) max (VIS): maximum absorption of the activated (colored) form in the visible spectrum, test square; for (λ) max (UV): wavelength in the ultraviolet range closest to the visible spectrum at which absorption occurs, test square of BPA 2EO DMA/poly(ethylene glycol) 600 dimethacrylate. As to the method:
(§1) Testing was done with the photochromic compounds described in Examples 1 through 4 and Comparative Examples 1 through 3 in the following manner. A quantity of photochromic compound calculated to yield a 1.5×10-3 molal solution was added to a flask containing 50 grams of a monomer blend of 4 parts ethoxylated bisphenol A dimethacrylate (BPA 2EO DMA), 1 part poly(ethylene glycol) 600 dimethacrylate, and 0.033 weight percent 2,2'-azobis(2-methyl propionitrile) (AIBN). The photochromic compound was dissolved into the monomer blend by stirring and gentle heating, if necessary. After a clear solution was obtained, it was poured into a flat sheet mold having the interior dimensions of 2.2 mm×6 inches (15.24 cm)×6 inches (15.24 cm). The mold was sealed and placed in a horizontal air flow, programmable oven programmed to increase the temperature from 40° C. to 95° C. over a 5 hour interval, hold the temperature at 95° C. for 3 hours, lower it to 60° C. over a 2 hour interval and then hold it at 60° C. for 16 hours. After the mold was opened, the polymer sheet was cut using a diamond blade saw into 2 inch (5.1 centimeters) test squares.
The ΔOD/Min, which represents the sensitivity of the photochromic compound's response to UV light, was measured over the first five (5) seconds of UV exposure, then expressed on a per minute basis. The saturation optical density (ΔOD@ Saturation) was taken under identical conditions as the ΔOD/Min, except UV exposure was continued for 15 minutes. The lambda max (Vis) is the wavelength in nanometers (nm) in the visible spectrum at which the maximum absorption of the activated (colored) form of the photochromic compound in a test square occurs. The lambda max (Vis) wavelength was determined by testing the photochromic test square polymerizates of Part A in a Varian Cary 3 UV-Visible spectrophotometer. The lambda (λ) max (UV) is the wavelength in nanometers in the ultraviolet range closest to the visible spectrum at which the absorption of the photochromic compound occurs. This absorption was also determined with the same spectrophotometer. The Bleach Rate (T 1/2) is the time interval in seconds for the absorbance of the activated form of the photochromic compound in the test squares to reach one half the highest absorbance at room temperature (72° F., 22.2° C.) after removal of the source of activating light.

Series [2] is described as follows: Photochromic response of test squares on optical bench (sensitivity, saturation optical density, bleach rate). In kind it is physicochemical. Particulars: for decrease in T 1/2 versus corresponding Comparative Example: % less than corresponding CE (Example 1 vs CE1; average of Examples 2 and 4 vs CE2; Example 3 vs CE3); for ΔOD@ Saturation: UV exposure continued for 15 minutes; for ΔOD@ Saturation / ΔOD/MIN Sensitivity: 72° F. (22.2° C.); for ΔOD/MIN Sensitivity: first five (5) seconds of UV exposure, expressed per minute, 0.15 to 0.20 mW/cm2; for Bleach Rate (T 1/2): time for absorbance of activated form to reach one half the highest absorbance at room temperature (72° F., 22.2° C.) after removal of activating light. As to the method:
as §1
The photochromic test squares prepared in Part A were tested for photochromic response on an optical bench. Prior to testing on the optical bench, the photochromic test squares were conditioned, i.e., exposed to 365 nanometer ultraviolet light for about 15 minutes to activate the photochromic compounds and then placed in a 76° C. oven for about 15 minutes to bleach or inactivate the photochromic compounds. The test squares were then cooled to room temperature, exposed to fluorescent room lighting for at least 2 hours and then kept covered for at least 2 hours prior to testing on an optical bench maintained at 72° F. (22.2° C.). The bench was fitted with a 250 watt Xenon arc lamp, a remote controlled shutter, a copper sulfate bath acting as a heat sink for the arc lamp, a Schott WG-320 nm cut-off filter which removes short wavelength radiation; neutral density filter(s) and a sample holder in which the square to be tested was inserted. The power output of the optical bench, i.e., the dosage of light that the sample lens would be exposed to, was calibrated with a photochromic test square used as a reference standard. […] The UV-A detector was placed into the sample holder and the light output was measured. Adjustments to the power output were made by increasing or decreasing the lamp wattage or by adding or removing neutral density filters in the light path.
A monitoring, collimated beam of light from a tungsten lamp was passed through the square at a small angle (approximately 30°) normal to the square. After passing through the square, the light from the tungsten lamp was directed to a detector through Spectral Energy Corp. GM-200 monochromator set at the previously determined visible lambda max of the photochromic compound being measured. The output signals from the detector were processed by a radiometer.
Change in optical density (ΔOD) was determined by inserting a test square in the bleached state into the sample holder, adjusting the transmittance scale to 100%, opening the shutter from the Xenon lamp to provide ultraviolet radiation to change the test square from the bleached state to an activated (i.e., darkened) state, measuring the transmittance in the activated state, and calculating the change in optical density according to the formula: ΔOD=log(100/% Ta), where % Ta is the percent transmittance in the activated state and the logarithm is to the base 10.
The ΔOD/Min, which represents the sensitivity of the photochromic compound's response to UV light, was measured over the first five (5) seconds of UV exposure, then expressed on a per minute basis. The saturation optical density (ΔOD@ Saturation) was taken under identical conditions as the ΔOD/Min, except UV exposure was continued for 15 minutes. […]

Consider “2,2-bis(4-methoxyphenyl)-5-methoxycarbonyl-6-methoxy(polyethoxy)-2H-naphtho[1,2-b]pyran [Example 1]”, for which, in series [1], the “(λ) max (VIS)” value is recorded as 511 nm and the “(λ) max (UV)” value came out at 353 nm. In addition, in series [2], the “decrease in T 1/2 versus corresponding Comparative Example” value is given as 24%, the “ΔOD@ Saturation” value is on record as 0.48, the “ΔOD/MIN Sensitivity” value is recorded as 0.19 ΔOD/MIN and the “Bleach Rate (T 1/2)” value was found to be 103 s. In addition, in series [2] (Example 1 versus Comparative Example 1), the “Sensitivity, units less than corresponding Comparative Example” value is recorded as “more than 0.02 units”.
In the case of `COC(=O)c1c2c(c3ccccc3c1OC)OC(c1ccc(OC)cc1)(c1ccc(OC)cc1)C=C2` [CE1, 2,2-bis(4-methoxyphenyl)-5-methoxycarbonyl-6-methoxy-2H-naphtho[1,2-b]pyran, reference compound], in series [1], the “(λ) max (VIS)” value stood at 512 nm and the “(λ) max (UV)” value amounted to 353 nm. Also, in series [2], the “ΔOD@ Saturation” value is 0.77, the “ΔOD/MIN Sensitivity” value is reported as 0.29 ΔOD/MIN and the “Bleach Rate (T 1/2)” value turned out to be 136 s.
On to `COC(=O)c1c2c(c3ccccc3c1-c1ccccc1)OC(c1ccccc1)(c1ccccc1)C=C2` [CE2, 2,2-diphenyl-5-methoxycarbonyl-6-phenyl-2H-naphtho[1,2-b]pyran, reference compound], for which, in series [1], the “(λ) max (VIS)” value stood at 486 nm and the “(λ) max (UV)” value worked out at 348 nm. For the same compound, in series [2], the “ΔOD@ Saturation” value came out at 0.80, the “ΔOD/MIN Sensitivity” value is given as 0.28 ΔOD/MIN and the “Bleach Rate (T 1/2)” value was found to be 230 s.
The corresponding values for `COC(=O)c1c2c(c3ccccc3c1C)OC(c1ccccc1)(c1ccccc1)C=C2` [CE3, 2,2-diphenyl-5-methoxycarbonyl-6-methyl-2H-naphtho[1,2b]pyran, reference compound] are 476 nm, 349 nm, 1.17, 0.23 ΔOD/MIN and 465 s.
With `COCCOCCOC(=O)c1c2c(c3ccccc3c1-c1ccccc1)OC(c1ccccc1)(c1ccccc1)C=C2` [Example 2, 2,2-diphenyl-5-(2-(2-methoxyethoxy)ethoxycarbonyl)-6-phenyl[2H]naphtho[1,2-b]pyran], in series [1], the “(λ) max (VIS)” value turned out to be 486 nm and the “(λ) max (UV)” value was 348 nm. In series [2], the “ΔOD@ Saturation” value was 0.67, the “ΔOD/MIN Sensitivity” value is on record as 0.26 ΔOD/MIN and the “Bleach Rate (T 1/2)” value came out at 167 s.
As to `COCCOCCOCCOC(=O)c1c2c(c3ccccc3c1C)OC(c1ccccc1)(c1ccccc1)C=C2` [Example 3, 2,2-diphenyl-5-(2-(2-(2-methoxyethoxy)ethoxy)ethoxycarbonyl)-6-methyl-2H-naphtho[1,2b]pyran], in series [1], the “(λ) max (VIS)” value is listed as 475 nm and the “(λ) max (UV)” value is listed as 349 nm. Besides, in series [2], the “decrease in T 1/2 versus corresponding Comparative Example” value is 42%, the “ΔOD@ Saturation” value is 0.86, the “ΔOD/MIN Sensitivity” value is 0.24 ΔOD/MIN and the “Bleach Rate (T 1/2)” value was determined as 270 s.
Take `COCCOCCOCCOC(=O)c1c2c(c3ccccc3c1-c1ccccc1)OC(c1ccccc1)(c1ccccc1)C=C2` [Example 4, 2,2-diphenyl-5-(2-(2-(2-methoxyethoxy)ethoxy)ethoxy-carbonyl)-6-phenyl-2H-naphtho[1,2-b]pyran]: in series [1], the “(λ) max (VIS)” value is given as 486 nm and the “(λ) max (UV)” value is on record as 348 nm. In addition, in series [2], the “ΔOD@ Saturation” value stood at 0.67, the “ΔOD/MIN Sensitivity” value is reported as 0.28 ΔOD/MIN and the “Bleach Rate (T 1/2)” value came to 165 s.

The values are drawn from patent publication US5961892A, “Polyalkoxylated naphthopyrans” (PPG Industries Ohio, Inc., priority 1998, dated 1999).
